The values below come from patent US20060167109A1, “Methods of reducing rhinovirus contagion and related compositions” (priority 2002, published 2006).

Data set [1] concerns human adenovirus, type 5 (HAdV-5). The experiment in a line: Virus cytopathic effect assay for other viruses. The class given is cell-based. Conditions: Human mastadenovirus C, HeLa. How it is done:
The sensitivity of non-picornaviruses to pleconaril was determined in virus cytopathic effect assays similar to the HRV assay for the following viruses: respiratory syncytial virus, strain Long (RSV-A) and herpes simplex virus type II, strain Curtis (HSV-2) on HEp2 cells; influenza virus, strain WSN (FLUA) on MDBK cells; dengue virus type 2, strain New Guinea (DEN-2), and measles virus, strain Edmonston (MeV) on Vero cells; human adenovirus, type 5 (HAdV-5) on HeLa cells (at 33° C.); human coronavirus, strain 229E (Corona) on MRC-5 cells (at 33° C.); and mumps virus, strain Enders (Mumps), reovirus type 1, strain Lang (REOV-1), and parainfluenza virus type 3, strain C243 (HPIV-3) on LLC-MK2d cells. All specificity assays were performed at 37° C. and 5% CO2 except where noted above.

A short description of data set [2]: Single dose oral pharmacokinetics in fed healthy young subjects. The data set is classed as in vivo, human. The following applies: for half-life: po, 400 mg.
The nature of data set [3]: Repeated dose pharmacokinetics, clinical dosing regimen. The data set is classed as in vivo, human. Conditions: 400 mg TID for 5 days. As to the method:
Plasma accumulation of pleconaril was modest (approximately two fold) when pleconaril was administered according to the clinical dosing regimen (400 mg TID for 5 days). The long terminal half-life had only a modest influence on pleconaril plasma concentration-time profiles for the clinical dosing regimen. The repeated dose pharmacokinetic profile of pleconaril was predictable from single dose data and, thus, the pharmacokinetic profile of pleconaril was time independent (FIG. 2).

A short description of data set [4]: Cell toxicity (MTT) assay of cell growth. Conditions: human, HeLa (WIS) cells; methyltetrazolium dye-based assay of cell growth. As to the method:
To properly evaluate antiviral activity in cell culture assays, the 50% cytotoxic concentration (CC50) of the test compound was first determined so that any inhibitory effects on virus replication could be distinguished from effects due to compound cytotoxicity. The CC50 of pleconaril was determined using a methyltetrazolium dye-based assay of cell growth (Pevear, et al., 1999, Antimicrob. Agents Chemother., 43, 2109-2115).
Pleconaril was solubilized in dimethyl sulfoxide (DMSO). After dilution to the desired drug concentration, the final DMSO concentration in assays was 0.25%.

For data set [5], the system named is HRV3. The experiment in a line: Low pH inactivation. The class given is cell-based, human rhinovirus. Conditions: 2 μM, pH 5.2, FIG. 4. How it is done: As a second indication of the direct interaction of the drug with the virion capsid, an experiment was conducted to examine the ability of pleconaril to protect HRV3 from low pH inactivation.
Approximately […] plaque forming units (PFU) of virus were incubated with 0.5% DMSO or 2 μM pleconaril (in 0.5% DMSO) overnight at 4° C. For HRV3, samples were diluted into sodium acetate buffer (1 M, pH 5.2 or pH 7.0) for 30 minutes on ice followed by neutralization with 2 volumes of 1M Tris-HCl, pH 8.0. All samples were extracted twice with chloroform prior to titration in the viral cytopathic effect assay on HeLa cells (see below).

In data set [6] the test system is HRV3. The experiment in a line: Uncoating inhibition. The following applies: 2 μM, 2 hours at 33° C. The data set is classed as cell-based, human rhinovirus. How it is done:
Following attachment to susceptible cells, rhinoviruses are endocytosed and disassembled or uncoated in order to release the viral RNA for subsequent gene expression and RNA replication. To determine if pleconaril affected the uncoating stage of the virus infection cycle, two types of experiments were carried out. In the first approach, an experiment was conducted to follow directly the fate of intact ^35S-radiolabeled (156S) virions attached to cells that were then allowed to proceed through virion disassembly (uncoating) in either the absence or presence of pleconaril. HRV3 virus was chosen for this experiment, as it is representative of the respective genera, and because binding of pleconaril was fully reversible with dilution, minimizing the possibility of drug carryover issues.
After virion attachment, either pleconaril (2 μM) or DMSO control solution was added to the cultures. After an additional 1 hour, the culture was shifted to 33° C., a temperature that permitted virus uncoating. After 2 hours, cell lysates were prepared and the amount of intact 156S virions was assessed by sedimentation of the lysates on continuous sucrose density gradients. […]

For the next data set, the system named is 101 serotypes of HRVs. In words: Spectrum of activity in HRV cytopathic effect assay.
Data set [7] can be described thus: Pleconaril concentration in nasal mucus, clinical studies 843-043 and 843-044. Conditions: diluted samples, individual subjects.
Experimental: Two hundred (200) μl of acetonitrile was added to 200 μl of each nasal mucus standard and sample. The samples and standards were vortex mixed and then centrifuged at 25° C. for 10 minutes at 2500 rpm. 170 μl of supernatant was removed from each standard and sample. Then, 30 μl of water was added. The mixture was vortex mixed and 40 μl was injected for quantitative analysis of pleconaril.
Standards and samples were analyzed via LC/MS/MS. • Mass Spec: Micromass Quattro • LC: Alliance 2790 • Mobile Phase: 85% Acetonitrile/15% 2 mM Ammonium Acetate (0.2% formic acid) • Flow Rate: 0.5 ml/min • Analytical Column: Luna C18 (2) 5μ, 50×3.00 mm (Phenomenex) • Source: ESI (Electrospray Ionization) • Ion Mode: Positive • MRM transition: 382>82
The Masslyns quantitation package was used to analyze the results. The method used was a linear (1/× weighted) external standard method of calibration.
Studies 843-043 and 843-044 were Phase III clinical trials for the acute treatment of viral respiratory infection (common cold) in which pleconaril was administered for five days (400 mg TID). These samples were selected based on the plasma concentrations measured on Day 3 of 6 (plasma concentrations at or above 1 μg/ml).
Nasal mucus samples were diluted with 2 ml of transport media during processing and prior to quantitative analysis.
[8] abbreviates: human, plasma, fed healthy young subjects (N = 24), single oral dose 400 mg, mean.

“And” between values parts separate entries of the source, which are not always exact repeats. Identical values can stand only once. Like-named read-outs stand apart in the source and are kept apart here.

Experimental for 101 serotypes of HRVs: HRV stocks were grown in HeLa (WIS) cells in 150 cm^2 flasks, frozen/thawed 3 times, aliquoted and stored frozen at −80° C. The virus inoculum to be used in the assay for each virus was determined as follows. HeLa (WIS) cells were seeded on 96-well tissue culture plates (Costar, 3598) at a density of 2.8×10^4 cells/well in M199 medium (Sigma) supplemented with 5% heat-inactivated newborn bovine serum. Twenty-four hours later, serial 0.5 log10 dilutions of each virus stock were plated in octuplicate onto the cells in complete M199 medium (5% heat-inactivated fetal bovine serum (FBS), 0.15 mM MgCl2, and 7.5 μg/mL diethylamino-dextran (DEAE-dextran)). The plates were incubated for 3 days at 33° C. in a humidified, 2.5% CO2 atmosphere, then fixed with 5% glutaraldehyde and stained with 0.1% crystal violet. After rinsing and drying, the optical density of the wells was read at a wavelength of 570 nm (OD570) on a Bio-Tek model EL-310 plate reader.

As usually defined, the IC50 is the midpoint of a concentration-inhibition curve. As usually defined, the CL/F is clearance divided by bioavailability, as obtained after extravascular dosing. Broadly, the AUC(0-inf) is total exposure, with the tail of the curve extrapolated. As usually defined, the Cmax is the highest concentration seen after dosing. The term Tmax denotes the time at which the peak concentration occurs. Broadly, the CC50 is the concentration that lowers cell viability or growth by half. Consider `Cc1cc(CCCOc2c(C)cc(-c3noc(C(F)(F)F)n3)cc2C)on1` [pleconaril, 3-[3,5-dimethyl-4-[3-(3-methyl-5-isoxazolyl)propoxy]phenyl]-5-(trifluoromethyl)-1,2,4-oxadiazole], for which, in data set [1], the IC50 is > 12.5 µM. This molecule registered a CL/F in data set [2] (fed healthy young subjects (N = 24), single oral dose 400 mg, mean) of 16.8 L/h. The alpha half-life in data set [2] (following oral absorption, alpha disposition phase) is ~2.8 h. The half-life was 186 h in data set [2] (human, plasma, fed healthy young subjects (N = 24), single oral dose 400 mg, mean, read-out: T1/2 (converted)); 2 to 3 h in data set [2] (human, plasma, following oral absorption, alpha disposition phase, read-out: alpha half-life); ~180 h in data set [2] (human, plasma, following oral absorption, read-out: terminal half-life (converted)). This molecule showed an AUC(0-inf) in data set [2] (setting [8]) of 29200 ng·h/mL. Moreover, in data set [2] (setting [8]), the highest level (Cmax) was 2300 ng/mL. Besides, the time of peak concentration (Tmax) in data set [2] (setting [8]) turned out to be 3 h. Further, in data set [2] (human, plasma, fed healthy young subjects (N = 24), single oral dose 400 mg, mean, read-out: Vz/F), the Vd/F was 4110 L. The plasma accumulation result in data set [3] is reported as “approximately two”. This molecule gave a CC50 in data set [4] of 12.5 to 25 µM. In addition, the “protection from low pH inactivation” value with HRV3 [5] is on record as “protect HRV3 from low pH-induced degradation”. For the same molecule, the “reduction in the amount of attached intact 156S virions (uncoating)” value in the data set with HRV3 [6] is on record as “minimal reduction”. The MIC50 in the data set on 101 serotypes of HRVs (Human rhinovirus sp., read-out: MIC50 (concentration inhibiting 50% of the HRV serotypes)) is ≤ 0.2 µM and ≤ 0.08 µg/mL. Moreover, in the data set with 101 serotypes of HRVs (Human rhinovirus sp., read-out: MIC80 (concentration inhibiting 80% of the HRV serotypes)), the MIC80 is ≤ 0.78 µM and ≤ 0.3 µg/mL. The MIC90 in the data set on 101 serotypes of HRVs (Human rhinovirus sp., read-out: MIC90 (concentration inhibiting 90% of the HRV serotypes)) is ≤ 4.3 µM and ≤ 1.6 µg/mL. Also, the “HRVs whose replication was inhibited” value in the data set with 101 serotypes of HRVs (of 101 prototypic serotypes) is recorded as 93 of 101. In addition, the “Pleconaril Concentration (Nasal Mucus)” value in data set [7] (Study 43, Day 3, 400 mg TID for five days) was 26.36 ng/mL and 10.22 ng/mL and 2.46 ng/mL and 1.20 ng/mL; in data set [7] (Study 43, Day 6, 400 mg TID for five days), “BQL and 2.21 ng/ml and 33.93 ng/ml and 79.38 ng/ml”; in data set [7] (Study 44, Day 3, 400 mg TID for five days), “BQL and 23.88 ng/ml and 2.51 ng/ml and 6.98 ng/ml”; in data set [7] (Study 44, Day 6, 400 mg TID for five days), 1.77 ng/mL and 2.43 ng/mL. Besides, in data set [7] (human, nasal mucus, oral, 400 mg TID, Pleconaril Concentration (Nasal Mucus), Study 44, Day 6, 400 mg TID for five days), the concentration at 6 day worked out at 1.68 ng/mL.
